Literature values as cited in patent US20090280177A1, “Pharmaceutical preparation for treating fibromyalgia” (priority 2006, published 2009).

Key:
T cell-dependent antigen = conditions: dose-dependent manner
T cells = conditions: dose-dependent manner
[1] = tested on: peripheral blood-adhesive cells from chronic rheumatoid arthritis patients
[2] = tested on: T cell-independent antigen

O=C(O)c1cc(/N=N/c2ccc(S(=O)(=O)Nc3ccccn3)cc2)ccc1O [salazosulfapyridine, 2-Hydroroxy-5-[4-(pyridine-2-ylsulfamoyl)phenylazo] benzoic acid]
immune response to a T cell-dependent antigen (T cell-dependent antigen): suppressed
IL-2 production (T cells): suppress
production of IL-1 and IL-6 [1]: suppress
immune response to a T cell-independent antigen [2]: hardly suppressed
